Assay results taken from the CheMixHub viscosity set.

Assay: xn = mol fraction of the nth substance listed

CC(C)[C@@H]1CC[C@@H](C)C[C@H]1O + CCCO
Settings	viscosity [mPa·s]
298.15 K, 101.33 kPa, x1 = 0.5	28.39

CCCCCCCCCCO + CCCO
viscosity [mPa·s], 101 kPa
Settings	298.15 K	308.15 K	318.15 K
x2 = 0.05	10.52	7.206	5.14
x2 = 0.1	10.05	6.914	4.927
x2 = 0.15	9.562	6.633	4.716
x2 = 0.2	9.064	6.36	4.508
x2 = 0.25	8.557	6.093	4.306
x2 = 0.3	8.046	5.831	4.109
x2 = 0.35	7.534	5.572	3.921
x2 = 0.4	7.023	5.314	3.741
x2 = 0.45	6.517	5.058	3.572
x2 = 0.5	6.018	4.802	3.416
x2 = 0.55	5.529	4.547	3.275
x2 = 0.6	5.052	4.293	3.15
x2 = 0.65	4.589	4.04	3.044
x2 = 0.7	4.142	3.79	2.96
x2 = 0.75	3.712	3.543	2.9
x2 = 0.8	3.303	3.301	2.866
x2 = 0.85	2.915	3.065	2.862
x2 = 0.9	2.549	2.839	2.89
x2 = 0.95	2.207	2.624	2.953

COCCOCCO + CCCO
viscosity [mPa·s], 101 kPa
Settings	298.15 K	308.15 K	318.15 K
x1 = 0.0105	1.951	1.522	1.248
x1 = 0.0278	1.961	1.547	1.25
x1 = 0.0448	1.966	1.559	1.259
x1 = 0.0797	1.979	1.566	1.275
x1 = 0.0978	1.998	1.566	1.28
x1 = 0.1316	2.02	1.581	1.296
x1 = 0.1852	2.069	1.613	1.326
x1 = 0.2267	2.104	1.648	1.369
x1 = 0.2853	2.158	1.693	1.399
x1 = 0.3029	2.172	1.713	1.415
x1 = 0.3226	2.2	1.724	1.43
x1 = 0.3872	2.284	1.79	1.486
x1 = 0.439	2.354	1.84	1.532
x1 = 0.4811	2.416	1.888	1.573
x1 = 0.5266	2.42	1.94	1.618
x1 = 0.5519	2.528	1.969	1.643
x1 = 0.6051	2.624	2.037	1.694
x1 = 0.6805	2.748	2.138	1.778
x1 = 0.7239	2.835	2.193	1.832
x1 = 0.7925	2.967	2.29	1.917
x1 = 0.8237	3.034	2.338	1.947
x1 = 0.8896	3.163	2.439	2.027
x1 = 0.9096	3.207	2.464	2.051
x1 = 0.9417	3.265	2.509	2.086
x2 = 0.0151	3.393	2.614	2.14

NC(N)=O + CCCO
viscosity [mPa·s], 101 kPa
Settings	298.15 K	303.15 K	308.15 K	313.15 K	318.15 K
x1 = 0.025	2.16	1.896	1.691	1.502	1.339
x1 = 0.0385	2.24	2.003	1.768	1.568	1.401

CCCCCC(=O)[O-].[NH3+]CCO + CCO
viscosity [mPa·s], 101 kPa
Settings	x1 = 0.0135	x2 = 0.794	x2 = 0.8544	x2 = 0.9	x2 = 0.9391	x2 = 0.9563	x2 = 0.9719
293.15 K	1.548	13.46	7.158	4.35	2.76	2.28	1.86
298.15 K	1.428	11.38	6.24	3.87	2.472	2.046	1.74
303.15 K	1.29	9.792	5.43	3.39	2.22	1.848	1.512

CCCCCCCCCCO + CCO
viscosity [mPa·s], 101 kPa
Settings	298.15 K	308.15 K	318.15 K
x2 = 0.05	10.42	7.3	4.847
x2 = 0.1	9.841	7.003	4.436
x2 = 0.15	9.249	6.644	4.102
x2 = 0.2	8.648	6.24	3.83
x2 = 0.25	8.044	5.809	3.604
x2 = 0.3	7.442	5.364	3.409
x2 = 0.35	6.845	4.919	3.236
x2 = 0.4	6.259	4.484	3.073
x2 = 0.45	5.687	4.065	2.912
x2 = 0.5	5.133	3.671	2.747
x2 = 0.55	4.6	3.304	2.575
x2 = 0.6	4.09	2.967	2.391
x2 = 0.65	3.606	2.659	2.195
x2 = 0.7	3.15	2.378	1.989
x2 = 0.75	2.723	2.119	1.775
x2 = 0.8	2.326	1.876	1.558
x2 = 0.85	1.961	1.641	1.344
x2 = 0.9	1.627	1.402	1.141
x2 = 0.95	1.325	1.146	0.9601
